Measured values taken from patent publication US3988364A, “Novel N,N-di-substituted amidines and several acid-addition salts thereof” (Toyo Jozo Kabushiki Kaisha, priority 1972, dated 1976).
Counter-ions that a name gives are not always drawn. Like-named read-outs stand apart in the source and are kept apart here.

Columns and labels:
dogs = experiment: Antitussive activity (50%-antitussive effective dose AtD50; efficiency ratio relative to codeine phosphate); assay type: in vivo; conditions: for ED50: Canis lupus familiaris, read-out: AtD50 (50%-antitussive effective dose); for Antitussive Ratio: efficiency ratio relative to codeine phosphate
Protocol: route of administration:
From the efficiency rate obtained upon each administration step, 50%-antitussive effective dose (AtD50) was calculated according to the Litchfield-Wilcoxon method. Further, efficiency ratio relative to codeine phosphate was also determined.

in vivo = assay type: in vivo; conditions: mouse, in vivo, sc, male ddy mice, subcutaneous injection, Litchfield-Wilcoxon
From the text: (§1) test animals: more than five groups, each group
consisting of five male mice of ddy-

persons = conditions: in words; inhibits long continuous administration; cited from earlier work
male mice of ddy-strain = experiment: in vivo; assay type: in vivo; conditions: subcutaneous injection, 72 hours, Litchfield-Wilcoxon
From the text: as §1
consisting of five male mice of ddy-

[1] = intravenous injection, Litchfield-Wilcoxon method
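Wherever LD50 is given: animals allocated into more than five groups, with five mice per group.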

Row | SMILES | ED50 (dogs; [1]) | LD50 at 72 h (in vivo) | Antitussive Ratio (dogs; intravenous injection) | further results
1 | Cc1ccc(C(=Nc2cccc(C)c2)NC2CCCCC2)cc1.Cl [Compound 32, N-cyclohexyl, N'-m-tolyl-p-toluamidine hydrochloride] | 2.48 mg/kg | 460 mg/kg | – | –
2 | COc1ccccc1N=C(NC1CCCCC1)c1cccc(C)c1.Cl [Compound 23, N-cyclohexyl, N'-o-methoxyphenyl-m-toluamidine hydrochloride] | – | 100 mg/kg | – | ED50 (dogs; iv): 4.29 mg/kg
3 | Cc1ccc(N=C(NC2CCCCC2)c2cccc(C)c2)cc1.Cl [Compound 25, N-cyclohexyl, N'-p-tolyl-m-toluamidine hydrochloride] | 4.29 mg/kg | 900 mg/kg | – | –
4 | Cc1cc(C)cc(N=C(NC2CCCCC2)c2ccccc2)c1.Cl [Compound 43, N-cyclohexyl, N'-3,5-xylyl-benzamidine hydrochloride] | 3.58 mg/kg | 660 mg/kg | – | –
5 | Cc1cccc(NC(=NC2CCCCC2)c2ccccc2)c1C [Compound 4, hydrochloric acid salt of N-cyclohexyl, N'-2,3-xylyl-benzamidine] | – | 117 mg/kg | 1.21 | –
6 | COc1ccc2c3c1O[C@H]1[C@@H](O)C=C[C@H]4[C@@H](C2)N(C)CC[C@@]341 [Compound 17, codeine phosphate, reference compound] | 2.2 mg/kg | – | 1.00 | habituation (persons): appreciable habituation; LD50 (male mice of ddy-strain): 190 mg/kg
7 | CCc1ccc(N=C(NC2CCCCC2)c2ccccc2)cc1.Cl [Compound 3, N-cyclohexyl, N'-p-ethylphenyl-benzamidine hydrochloride] | – | 218 mg/kg | 0.95 | –
8 | CCc1ccccc1N=C(NC1CCCCC1)c1ccc(C)cc1.Cl [Compound 30, N-cyclohexyl, N'-o-ethylphenyl-p-toluamidine hydrochloride] | 4.29 mg/kg | > 1000 mg/kg | – | –
9 | CCc1ccccc1N=C(NC1CCCCC1)c1ccccc1.Cl [Compound 42, N-cyclohexyl, N'-o-ethylphenyl-benzamidine hydrochloride] | 4.29 mg/kg | > 1000 mg/kg | – | –
10 | COc1ccc2c(c1)[C@]13CCCC[C@@H]1[C@H](C2)N(C)CC3 [Compound 15, dextrometrofan hydrobromide, reference compound] | – | 153 mg/kg | 0.15 | –
11 | COc1cccc(N=C(NC2CCCCC2)c2ccccc2C)c1.O=C(O)C(=O)O [Compound 24, N-cyclohexyl, N'-m-methoxyphenyl-o-toluamidine oxalate] | 5.15 mg/kg | 891 mg/kg | – | –
12 | COc1ccccc1C(=Nc1cccc(C)c1)NC1CCCCC1.Cl [Compound 35, N-cyclohexyl, N'-m-tolyl-o-methoxy-benzamidine hydrochloride] | 5.15 mg/kg | 144 mg/kg | – | –
13 | Cl.c1ccc(N(CCN2CCCCC2)Cc2ccccn2)cc1 [Compound 11, picoperidamine hydrochloride, reference compound] | – | – | 0.95 | LD50 (male mice of ddy-strain): 144 mg/kg
14 | Cc1ccccc1NC(=NC1CCCCC1)c1ccccc1 [Compound 1, hydrochloric acid salt of N-cyclohexyl, N'-o-tolyl-benzamidine] | – | 242 mg/kg | 1.73 | –
15 | Cc1ccc(NC(=NC2CCCCC2)c2ccccc2)cc1 [Compound 2, hydrochloric acid salt of N-cyclohexyl, N'-p-tolyl-benzamidine] | – | 186 mg/kg | 0.58 | –
16 | Cl.Clc1ccc(C(OCCN2CCCCC2)c2ccccc2)cc1 (stereo not drawn) [Compound 13, Hustazol, reference compound] | – | – | 0.52 | LD50 (male mice of ddy-strain): 375 mg/kg
17 | CCc1ccccc1N=C(NC1CCCCC1)c1cccc(C)c1.Cl [Compound 27, N-cyclohexyl, N'-o-ethylphenyl-m-toluamidine hydrochloride] | 5.15 mg/kg | > 1000 mg/kg | – | –
18 | Cc1cccc(C(=NC2CCCCC2)Nc2ccccc2)c1 [Compound 8, hydrochloric acid salt of N-cyclohexyl, N'-phenyl-m-toluamidine] | – | 276 mg/kg | 1.20 | –
19 | COc1ccc(C(=Nc2cccc(C)c2)NC2CCCCC2)cc1.Cl [Compound 40, N-cyclohexyl, N'-m-tolyl-p-anisamidine hydrochloride] | 2.48 mg/kg | 298 mg/kg | – | –
20 | COc1ccccc1C(=Nc1ccccc1)NC1CCCCC1.Cl [Compound 34, N-cyclohexyl, N'-phenyl-o-methoxy-benzamidine hydrochloride] | 3.58 mg/kg | 100 mg/kg | – | –
21 | COc1cccc(N=C(NC2CCCCC2)c2ccccc2)c1.Cl [Compound 6, N-cyclohexyl, N'-m-methoxyphenyl-benzamidine hydrochloride] | – | 78 mg/kg | 1.20 | –
22 | Cc1cccc(C)c1N=C(NC1CCCCC1)c1ccccc1.Cl [Compound 45, N-cyclohexyl, N'-2,6-xylyl-benzamidine hydrochloride] | 4.29 mg/kg | 248 mg/kg | – | –

Row | SMILES | ED50 (dogs; [1]) | LD50 at 72 h (in vivo) | Antitussive Ratio (dogs; intravenous injection) | further results
23 | Cc1ccccc1C(=NC1CCCCC1)Nc1ccccc1 [Compound 18, N-cyclohexyl, N'-phenol-o-toluamidine hydrochloride] | – | 740 mg/kg | – | ED50 (dogs; iv): 5.15 mg/kg
24 | Cc1cc(C)c(NC(=NC2CCCCC2)c2ccccc2)c(C)c1 [Compound 46, N-cyclohexyl, N'-2,4,6-trimethyl-phenyl-benzamidine hydrochloride] | 5.15 mg/kg | 120 mg/kg | – | –
25 | COc1cccc(N=C(NC2CCCCC2)c2cccc(C)c2)c1.O=C(O)C(=O)O [Compound 28, N-cyclohexyl, N'-m-methoxyphenyl-m-toluamidine oxalate] | 5.15 mg/kg | 743 mg/kg | – | –
26 | Cc1ccc(N=C(NC2CCCCC2)c2ccccc2C)cc1.Cl [Compound 21, N-cyclohexyl, N'-p-tolyl-o-toluamidine hydrochloride] | 3.58 mg/kg | 160 mg/kg | – | –
27 | COc1ccc(C(=Nc2ccccc2)NC2CCCCC2)cc1.Cl [Compound 38, N-cyclohexyl, N'-phenyl-p-anisamidine hydrochloride] | 2.98 mg/kg | 120 mg/kg | – | –
28 | Cc1ccc(C(=Nc2ccccc2C)NC2CCCCC2)cc1.Cl [Compound 29, N-cyclohexyl, N'-o-tolyl-p-toluamidine hydrochloride] | 2.48 mg/kg | 620 mg/kg | – | –
29 | Cc1cccc(C(=Nc2ccccc2C)NC2CCCCC2)c1.Cl [Compound 26, N-cyclohexyl, N'-o-tolyl-m-toluamidine hydrochloride] | 2.98 mg/kg | 740 mg/kg | – | –
30 | Cc1ccccc1C(=NC1CCCCC1)Nc1cccc(C)c1C [Compound 22, N-cyclohexyl, N'-2,3,-xylyl-o-toluamidine hydrochloride] | 3.58 mg/kg | > 1000 mg/kg | – | –
31 | Cc1ccccc1N=C(NC1CCCCC1)c1ccccc1C.Cl [Compound 19, N-cyclohexyl, N'-o-tolyl-o-toluamidine hydrochloride] | 5.15 mg/kg | 650 mg/kg | – | –
32 | COc1cccc(N=C(NC2CCCCC2)c2ccc(C)cc2)c1.Cl [Compound 33, N-cyclohexyl, N'-m-methoxyphenyl-p-toluamidine hydrochloride] | 5.15 mg/kg | 600 mg/kg | – | –
33 | CCc1cccc(N=C(NC2CCCCC2)c2ccccc2)c1.Cl [Compound 44, N-cyclohexyl, N'-m-ethylphenyl-benzamidine hydrochloride] | 4.29 mg/kg | 900 mg/kg | – | –
34 | COc1ccc(C(=Nc2cccc(OC)c2)NC2CCCCC2)cc1.Cl [Compound 41, N-cyclohexyl, N'-m-methoxyphenyl-p-anisamidine hydrochloride] | 2.98 mg/kg | 248 mg/kg | – | –
35 | Cc1ccc(C(=NC2CCCCC2)Nc2cccc(C)c2C)cc1 [Compound 31, N-cyclohexyl, N'-2,3,-xylyl-p-toluamidine hydrochloride] | 2.07 mg/kg | > 1000 mg/kg | – | –
36 | Cc1cccc(NC(=NC2CCCCC2)c2cccc(C)c2)c1 [Compound 9, hydrochloric acid salt of N-cyclohexyl, N'-m-tolyl-m-toluamidine] | – | 445 mg/kg | 1.20 | –
37 | c1ccc(C(=NC2CCCCC2)Nc2cccc3ccccc23)cc1 [Compound 7, N-cyclohexyl, N'-α-naphtyl-benzamidine hydrochloride] | – | > 800 mg/kg | 0.79 | –
38 | COc1cccc(N=C(NC2CCCCC2)c2ccccc2OC)c1.Cl [Compound 37, N-cyclohexyl, N'-m-methoxyphenyl-o-methoxybenzamidine hydrochloride] | 2.98 mg/kg | 207 mg/kg | – | –
39 | COc1ccc2c(c1OC)C(=O)O[C@@H]2[C@H]1c2c(cc3c(c2OC)OCO3)CCN1C [Compound 16, noscapine hydrochloride, reference compound] | – | 240 mg/kg | 0.24 | –
40 | Cc1ccc(C(=NC2CCCCC2)Nc2ccccc2)cc1 [Compound 10, hydrochloric acid salt of N-cyclohexyl, N'-phenyl-p-toluamidine] | – | 186 mg/kg | 0.83 | –
41 | COc1ccccc1N=C(NC1CCCCC1)c1ccccc1.Cl [Compound 5, N-cyclohexyl, N'-o-methoxyphenyl-benzamidine hydrochloride] | – | 268 mg/kg | 0.44 | –
42 | COc1ccc(C(=Nc2ccccc2C)NC2CCCCC2)cc1.Cl [Compound 39, N-cyclohexyl, N'-o-tolyl-p-anisamidine hydrochloride] | 3.58 mg/kg | 172 mg/kg | – | –
43 | Cc1cccc(N=C(NC2CCCCC2)c2ccccc2C)c1.Cl [Compound 20, N-cyclohexyl, N'-m-tolyl-o-toluamidine hydrochloride] | – | > 100 mg/kg | – | ED50 (dogs; iv): 4.29 mg/kg
44 | COc1ccccc1C(=Nc1ccccc1C)NC1CCCCC1.Cl [Compound 36, N-cyclohexyl, N'-o-tolyl-o-methoxy-benzamidine hydrochloride] | 4.29 mg/kg | 100 mg/kg | – | –
